Assay results published in the supplement of paper PMC10307832.

Tests used:
Assay in all cases: relative viability (nuclei count vs DMSO), 5 days (fraction); higher = more cells survive
[1] = compound: CC(C)(C)c1cc(NC(=O)Nc2ccc(-c3cn4c(n3)sc3cc(OCCN5CCOCC5)ccc34)cc2)no1 [Quizartinib] + NC(=O)Nc1cc(-c2cccc(F)c2)sc1C(=O)N[C@H]1CCCNC1 [AZD7762] (partner 0.2 µM)
How it was run: (§1)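 Relative viability is defined as nuclei in treated wells over nuclei in vehicle wells. Duplicate plates were run and medians reported. Lung cancer cell lines in 1536-well plates were dosed by pin tool one day after seeding, with one drug or with a fixed anchor-drug dose plus five library-drug doses (not always all listed) in √10 steps, and nuclei were counted after 5 days.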

[2] = compound: COCC[n+]1c2c(n(Cc3cnccn3)c1C)C(=O)c1ccccc1C2=O [YM155] + C[C@@H](Oc1cc(-c2cnn(C3CCNCC3)c2)cnc1N)c1c(Cl)ccc(F)c1Cl [Crizotinib] (partner 1 µM)
How it was run: as §1

[3] = compound: COCC[n+]1c2c(n(Cc3cnccn3)c1C)C(=O)c1ccccc1C2=O [YM155] + Nc1ncn([C@H]2C[C@H](O)[C@@H](CO)O2)c(=O)n1 [Decitabine] (partner 2 µM)
How it was run: as §1

[4] = compound: CC(C)(C)c1cc(NC(=O)Nc2ccc(-c3cn4c(n3)sc3cc(OCCN5CCOCC5)ccc34)cc2)no1 [Quizartinib] + CC(=O)c1c(C)c2cnc(Nc3ccc(N4CCNCC4)cn3)nc2n(C2CCCC2)c1=O [Palbociclib] (partner 0.5 µM)
How it was run: as §1

Cell Line | relative viability ([1]; first compound 0.001 µM) | relative viability ([1]; first compound 0.003162 µM) | relative viability ([1]; first compound 0.01 µM) | relative viability ([1]; first compound 0.03162 µM) | relative viability ([1]; first compound 0.1 µM) | relative viability ([2]; first compound 0.002 µM) | relative viability ([2]; first compound 0.006325 µM) | relative viability ([2]; first compound 0.02 µM) | relative viability ([2]; first compound 0.06325 µM) | relative viability ([3]; first compound 0.002 µM) | relative viability ([3]; first compound 0.006325 µM) | relative viability ([3]; first compound 0.02 µM) | relative viability ([3]; first compound 0.06325 µM) | relative viability ([4]; first compound 0.001 µM) | relative viability ([4]; first compound 0.003162 µM) | relative viability ([4]; first compound 0.01 µM) | relative viability ([4]; first compound 0.03162 µM) | relative viability ([4]; first compound 0.1 µM)
NCI-H1437 | 0.944 | 1.05 | 1.17 | 1.04 | 0.943 | 0.878 | 0.9 | 0.902 | 0.681 | 0.557 | 0.539 | 0.567 | 0.472 | 0.298 | 0.288 | 0.32 | 0.299 | 0.261
LXF-289 | 0.816 | 1.08 | 1.09 | 1.11 | 1.12 | 0.812 | 0.787 | 0.867 | 0.684 | 0.354 | 0.39 | 0.371 | 0.379 | 0.52 | 0.603 | 0.649 | 0.594 | 0.574
LU99A | 0.336 | 0.324 | 0.435 | 0.479 | 0.324 | 0.499 | 0.549 | 0.633 | 0.474 | 0.84 | 0.808 | 0.824 | 0.936 | 0.39 | 0.404 | 0.422 | 0.432 | 0.249
HOP-62 | 0.639 | 0.529 | 0.554 | 0.688 | 0.463 | 0.91 | 1.01 | 0.919 | 0.983 | 0.221 | 0.242 | 0.235 | 0.214 | 0.438 | 0.357 | 0.526 | 0.459 | 0.349
